Experimental data taken from US11739100B2, “2,3-dihydro-1h-imidazo{1,2-a}pyrimidin-5-one and this 1,2,3,4-tetrahydropyrimido{1,2-a}pyrimidin-6-one derivatives comprising a substituted morpholine, preparation thereof and pharmaceutical use thereof” (SANOFI, priority 2012, dated 2023).

The compounds below were run against T1, recombinant Vps34 (Homo sapiens, UniProt Q8NEB9) (assay: Phosphorylation of phosphatidylinositol (PI) by Vps34 in vitro, ADP detected by TR-FRET (HTRF Transcreener ADP)). Settings: 10 μM ATP, 55 μg/ml PI, approximately 3 nM Vps34, 1 hour at ambient temperature; absolute IC50, mean of two independent experiments; read-out: IC50 activity range.
T1 construct: purchased Invitrogen PV5126
Format: biochemical

T1 sequence (Q8NEB9 whole entry): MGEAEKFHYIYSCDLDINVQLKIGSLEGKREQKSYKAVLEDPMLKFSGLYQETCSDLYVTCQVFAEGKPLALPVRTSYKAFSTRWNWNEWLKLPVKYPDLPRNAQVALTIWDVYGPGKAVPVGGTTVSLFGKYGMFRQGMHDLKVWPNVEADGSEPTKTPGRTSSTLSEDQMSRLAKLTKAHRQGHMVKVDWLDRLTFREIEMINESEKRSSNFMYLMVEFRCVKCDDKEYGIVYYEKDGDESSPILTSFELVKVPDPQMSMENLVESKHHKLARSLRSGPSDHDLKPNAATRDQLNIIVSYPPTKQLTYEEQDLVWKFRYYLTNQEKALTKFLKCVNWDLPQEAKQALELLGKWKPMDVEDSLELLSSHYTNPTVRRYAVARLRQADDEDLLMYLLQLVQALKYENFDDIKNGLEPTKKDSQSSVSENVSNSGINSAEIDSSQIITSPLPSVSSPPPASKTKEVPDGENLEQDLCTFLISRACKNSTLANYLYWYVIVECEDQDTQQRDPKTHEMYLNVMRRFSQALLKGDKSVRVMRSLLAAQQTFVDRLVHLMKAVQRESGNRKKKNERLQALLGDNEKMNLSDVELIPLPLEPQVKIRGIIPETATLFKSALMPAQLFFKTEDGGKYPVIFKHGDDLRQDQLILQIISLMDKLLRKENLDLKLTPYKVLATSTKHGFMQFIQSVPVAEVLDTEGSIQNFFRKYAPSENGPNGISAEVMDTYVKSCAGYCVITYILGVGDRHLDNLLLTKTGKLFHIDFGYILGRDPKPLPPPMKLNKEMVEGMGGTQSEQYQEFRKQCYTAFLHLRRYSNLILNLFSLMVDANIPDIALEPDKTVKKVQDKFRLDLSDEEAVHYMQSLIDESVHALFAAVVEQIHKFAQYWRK

IC50 | SMILES
< 10 nM | Cc1noc(CN2c3nc(N4CCOC[C@H]4C)c(F)c(=O)n3C[C@@]2(C)C(F)(F)F)n1 [Example 207, (S)-6-Fluoro-2-methyl-7-((R)-3-methyl-morpholin-4-yl)-1-(3-methyl-[1,2,4]oxadiazol-5-yl-methyl)-2-trifluoromethyl-2,3-dihydro-1H-imidazo[1,2-a]-pyrimidin-5-one]
10 to 100 nM | Cc1noc(CN2c3nc(N4CCOC[C@H]4C)cc(=O)n3C[C@@]2(C)C(F)(F)F)n1 [Example 208, (S)-2-Methyl-7-((R)-3-methylmorpholin-4-yl)-1-(3-methyl-[1,2,4]oxadiazol-5-yl-methyl)-2-trifluoromethyl-2,3-dihydro-1H-imidazo[1,2-a]-pyrimidin-5-one]
< 10 nM | Cc1nc(CN2c3nc(N4CCOC[C@H]4C)cc(=O)n3CC[C@@]2(C)C(F)(F)F)no1 [Example 211, (S)-8-Methyl-2-((R)-3-methylmorpholin-4-yl)-9-(5-methyl-[1,2,4]oxadiazol-3-yl-methyl)-8-trifluoromethyl-6,7,8,9-tetrahydro-pyrimido[1,2-a]-pyrimidin-4-one]
< 10 nM | C[C@@H]1COCCN1c1cc(=O)n2c(n1)N(CC(O)c1ccccn1)[C@H](C(F)(F)F)CC2 (stereo partly drawn) [Example 213, (S)-9-(2-Hydroxy-2-pyridin-2-ylethyl)-2-((R)-3-methyl-morpholin-4-yl)-8-trifluoromethyl-6,7,8,9-tetrahydro-pyrimido[1,2-a]-pyrimidin-4-one]
< 10 nM | C[C@@H]1COCCN1c1cc(=O)n2c(n1)N(Cc1ccnn1C(F)F)[C@](C)(C(F)(F)F)CC2 [Example 214, (S)-9-(2-Difluoromethyl-2H-pyrazol-3-ylmethyl)-8-methyl-2-((R)-3-methylmorpholin-4-yl)-8-trifluoromethyl-6,7,8,9-tetrahydro-pyrimido[1,2-a]-pyrimidin-4-one]
< 10 nM | C[C@@H]1COCCN1c1cc(=O)n2c(n1)N(Cc1ccon1)[C@](C)(C(F)(F)F)CC2 [Example 215, (S)-9-Isoxazol-3-yl-methyl-8-methyl-2-((R)-3-methyl-morpholin-4-yl)-8-trifluoromethyl-6,7,8,9-tetrahydro-pyrimido[1,2-a]-pyrimidin-4-one]
10 to 100 nM | C[C@@H]1COCCN1c1cc(=O)n2c(n1)N(Cc1ccncc1)[C@H](C(F)(F)F)CC2 [Example 216, (S)-2-((R)-3-Methyl-morpholin-4-yl)-9-pyridin-4-ylmethyl-8-trifluoromethyl-6,7,8,9-tetrahydro-pyrimido[1,2-a]-pyrimidin-4-one]
< 10 nM | C[C@@H]1COCCN1c1cc(=O)n2c(n1)N(Cc1cccnc1)[C@H](C(F)(F)F)CC2 [Example 217, (S)-2-((R)-3-Methyl-morpholin-4-yl)-9-pyridin-3-ylmethyl-8-trifluoromethyl-6,7,8,9-tetrahydro-pyrimido[1,2-a]-pyrimidin-4-one]
< 10 nM | C[C@@H]1COCCN1c1cc(=O)n2c(n1)N(Cc1ccccn1)[C@H](C(F)(F)F)CC2 [Example 218, (S)-2-((R)-3-Methyl-morpholin-4-yl)-9-pyridin-2-ylmethyl-8-trifluoromethyl-6,7,8,9-tetrahydro-pyrimido[1,2-a]-pyrimidin-4-one]
< 10 nM | C[C@@H]1COCCN1c1cc(=O)n2c(n1)N(CCc1ccc(F)cc1)[C@H](C(F)(F)F)CC2 [Example 219, (S)-9-[2-(4-Fluoro-phenyl)ethyl]-2-((R)-3-methylmorpholin-4-yl)-8-trifluoromethyl-6,7,8,9-tetrahydro-pyrimido[1,2-a]-pyrimidin-4-one]
< 10 nM | C[C@@H]1COCCN1c1cc(=O)n2c(n1)N(CCc1ccccn1)[C@H](C(F)(F)F)CC2 [Example 220, (S)-2-((R)-3-Methyl-morpholin-4-yl)-9-(2-pyridin-2-ylethyl)-8-trifluoromethyl-6,7,8,9-tetrahydro-pyrimido[1,2-a]-pyrimidin-4-one]
< 10 nM | C[C@@H]1COCCN1c1cc(=O)n2c(n1)N(Cc1cccnc1F)[C@H](C(F)(F)F)CC2 [Example 221, (S)-9-(2-Fluoropyridin-3-ylmethyl)-2-((R)-3-methylmorpholin-4-yl)-8-trifluoromethyl-6,7,8,9-tetrahydro-pyrimido[1,2-a]-pyrimidin-4-one]
10 to 100 nM | C[C@@H]1COCCN1c1cc(=O)n2c(n1)N(CC(=O)N(C)C)[C@H](C(F)(F)F)CC2 [Example 222, N,N-Dimethyl-2-[(S)-8-((R)-3-methyl-morpholin-4-yl)-6-oxo-2-trifluoromethyl-3,4-dihydro-2H,6H-pyrimido[1,2-a]-pyrimidin-1-yl]-acetamide]
10 to 100 nM | CNC(=O)CN1c2nc(N3CCOC[C@H]3C)cc(=O)n2CC[C@H]1C(F)(F)F [Example 223, N-Methyl-2-[(S)-8-((R)-3-methylmorpholin-4-yl)-6-oxo-2-trifluoromethyl-3,4-dihydro-2H,6H-pyrimido[1,2-a]-pyrimidin-1-yl]-acetamide]
< 10 nM | C[C@@H]1COCCN1c1cc(=O)n2c(n1)N(Cc1cccc(F)n1)[C@H](C(F)(F)F)CC2 [Example 224, (S)-9-(6-Fluoropyridin-2-ylmethyl)-2-((R)-3-methylmorpholin-4-yl)-8-trifluoromethyl-6,7,8,9-tetrahydro-pyrimido[1,2-a]-pyrimidin-4-one]
< 10 nM | CC(C)Oc1cc(CN2c3nc(N4CCOC[C@H]4C)cc(=O)n3CC[C@H]2C(F)(F)F)ccn1 [Example 225, (S)-9-(2-Isopropoxy-pyridin-4-ylmethyl)-2-((R)-3-methyl-morpholin-4-yl)-8-trifluoromethyl-6,7,8,9-tetrahydro-pyrimido[1,2-a]-pyrimidin-4-one]
< 10 nM | CC(C)c1noc(CN2c3nc(N4CCOC[C@H]4C)cc(=O)n3CC[C@H]2C(F)(F)F)n1 [Example 226, (S)-9-(3-Isopropyl-[1,2,4]oxadiazol-5-yl-methyl)-2-((R)-3-methylmorpholin-4-yl)-8-trifluoromethyl-6,7,8,9-tetrahydro-pyrimido[1,2-a]-pyrimidin-4-one]
< 10 nM | C[C@@H]1COCCN1c1cc(=O)n2c(n1)N(Cc1nc(C3CC3)no1)[C@H](C(F)(F)F)CC2 [Example 227, (S)-9-(3-Cyclopropyl-[1,2,4]oxadiazol-5-yl-methyl)-2-((R)-3-methylmorpholin-4-yl)-8-trifluoromethyl-6,7,8,9-tetrahydro-pyrimido[1,2-a]-pyrimidin-4-one]
< 10 nM | C[C@@H]1COCCN1c1cc(=O)n2c(n1)N(Cc1nc(C(C)(C)C)no1)[C@H](C(F)(F)F)CC2 [Example 228, (S)-9-(3-tert-Butyl-[1,2,4]oxadiazol-5-yl-methyl)-2-((R)-3-methylmorpholin-4-yl)-8-trifluoromethyl-6,7,8,9-tetrahydro-pyrimido[1,2-a]-pyrimidin-4-one]
< 10 nM | CC(C)Oc1ccc(CN2c3nc(N4CCOC[C@H]4C)cc(=O)n3CC[C@H]2C(F)(F)F)cn1 [Example 229, (S)-9-(6-Isopropoxy-pyridin-3-ylmethyl)-2-((R)-3-methyl-morpholin-4-yl)-8-trifluoromethyl-6,7,8,9-tetrahydro-pyrimido[1,2-a]-pyrimidin-4-one]
< 10 nM | CC(C)Oc1ncccc1CN1c2nc(N3CCOC[C@H]3C)cc(=O)n2CC[C@H]1C(F)(F)F [Example 230, (S)-9-(2-Isopropoxy-pyridin-3-ylmethyl)-2-((R)-3-methyl-morpholin-4-yl)-8-trifluoromethyl-6,7,8,9-tetrahydro-pyrimido[1,2-a]-pyrimidin-4-one]
< 10 nM | C[C@@H]1COCCN1c1cc(=O)n2c(n1)N(Cc1nccs1)[C@H](C(F)(F)F)CC2 [Example 231, (S)-2-((R)-3-Methyl-morpholin-4-yl)-9-thiazol-2-ylmethyl-8-trifluoromethyl-6,7,8,9-tetrahydro-pyrimido[1,2-a]-pyrimidin-4-one]
< 10 nM | C[C@@H]1COCCN1c1nc2n(c(=O)c1F)CC[C@@H](C(F)(F)F)N2Cc1nccs1 [Example 232, (S)-3-Fluoro-2-((R)-3-methylmorpholin-4-yl)-9-thiazol-2-ylmethyl-8-trifluoromethyl-6,7,8,9-tetrahydro-pyrimido[1,2-a]-pyrimidin-4-one]
< 10 nM | C[C@@H]1COCCN1c1cc(=O)n2c(n1)N(CC(=O)N1CCCCC1)[C@H](C(F)(F)F)CC2 [Example 233, (S)-2-((R)-3-Methyl-morpholin-4-yl)-9-(2-oxo-2-piperidin-1-yl-ethyl)-8-trifluoromethyl-6,7,8,9-tetrahydro-pyrimido[1,2-a]-pyrimidin-4-one]
10 to 100 nM | C[C@@H]1COCCN1c1cc(=O)n2c(n1)N(CC(=O)N1CCOCC1)[C@H](C(F)(F)F)CC2 [Example 234, (S)-2-((R)-3-Methyl-morpholin-4-yl)-9-(2-morpholin-4-yl-2-oxo-ethyl)-8-trifluoromethyl-6,7,8,9-tetrahydro-pyrimido[1,2-a]-pyrimidin-4-one]
10 to 100 nM | C[C@@H]1COCCN1c1nc2n(c(=O)c1F)CC[C@@H](C(F)(F)F)N2CC(=O)N1CCOCC1 [Example 235, (S)-3-Fluoro-2-((R)-3-methylmorpholin-4-yl)-9-(2-morpholin-4-yl-2-oxoethyl)-8-trifluoromethyl-6,7,8,9-tetrahydro-pyrimido[1,2-a]-pyrimidin-4-one]
10 to 100 nM | C[C@@H]1COCCN1c1cc(=O)n2c(n1)N(CC(=O)Nc1ccccc1)[C@H](C(F)(F)F)CC2 [Example 236, 2-[(S)-8-((R)-3-Methyl-morpholin-4-yl)-6-oxo-2-trifluoromethyl-3,4-dihydro-2H,6H-pyrimido[1,2-a]-pyrimidin-1-yl]-N-phenyl-acetamide]
< 10 nM | C[C@@H]1COCCN1c1nc2n(c(=O)c1F)CC[C@@H](C(F)(F)F)N2CC(=O)N1CCCCC1 [Example 237, (S)-3-Fluoro-2-((R)-3-methylmorpholin-4-yl)-9-(2-oxo-2-piperidin-1-ylethyl)-8-trifluoromethyl-6,7,8,9-tetrahydro-pyrimido[1,2-a]-pyrimidin-4-one]
> 100 nM | CC(=O)N1c2nc(N3CCOC[C@H]3C)cc(=O)n2CC[C@H]1C(F)(F)F [Example 238, (S)-9-Acetyl-2-((R)-3-methylmorpholin-4-yl)-8-trifluoromethyl-6,7,8,9-tetrahydro-pyrimido[1,2-a]-pyrimidin-4-one]
